Results as given in paper PMC6130577, “Rational screening of peroxisome proliferator-activated receptor-γ agonists from natural products: potential therapeutics for heart failure” (Pharmaceutical Biology, 2016).
Read-outs that look alike come from different tables or passages of the source.

Columns and labels:
PPARγ = details: cited from earlier work
human PPARγ (hPPARγ) = target: T1, human PPARγ (hPPARγ) (Homo sapiens, UniProt P37231); assay: Transactivation reporter assay (chimeric GAL4-PPAR reporter-gene assay in CV-1 cells); assay type: cell-based; details: for EC50: CV-1 cells, 48 h, luciferase, triplicate
T1 construct: expressed in transfected cells; host or cells: CV-1 cells
T1 sequence (P37231 238-503 limits assumed): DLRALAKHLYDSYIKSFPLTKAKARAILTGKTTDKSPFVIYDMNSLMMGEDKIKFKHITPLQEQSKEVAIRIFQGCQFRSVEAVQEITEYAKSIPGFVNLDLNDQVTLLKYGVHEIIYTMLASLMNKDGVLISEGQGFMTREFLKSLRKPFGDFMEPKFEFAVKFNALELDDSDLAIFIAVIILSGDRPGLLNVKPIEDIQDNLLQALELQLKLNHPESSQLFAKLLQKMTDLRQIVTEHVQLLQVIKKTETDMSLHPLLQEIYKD
Experimental: Briefly, chimeric receptor expression plasmid pcDNA3-hPPARγ/GAL4 was prepared by inserting the yeast GAL4 transcription factor DNA-binding domain adjacent to the hPPARγ LBD domain. The reporter plasmid, p(UAS)5-tk-luc, was generated by inserting five copies of the GAL4 response element upstream of the herpesvirus minimal thymidine kinase promoter and the luciferase reporter gene. The chimeric receptor expression plasmid and reporter plasmid were cotransfected into CV-1 cells. The transfected cells were cultured with or without each tested compound for 48 h and then steady-state luminescence intensity was measured with a microplate luminometer (Turner Biosystems). All compounds were purchased from Sigma-Aldrich and ChemPartner, and dissolved in dimethyl sulfoxide (<0.1% v/v). Each assay was carried out in triplicate.

[1] = literature value, ref Xu et al. [2001], read-out: Agonistic activity EC50

For `COC(=O)/C(=C/c1cc(OC)cc(OC)c1)c1ccc(Oc2ccc(CC3SC(=O)NC3=O)cc2)cc1` (stereo not drawn) [CLX-0921], the EC50 (PPARγ; literature value, ref Dey et al. [2003], read-out: Agonistic activity EC50) is given as 284 nM.

In the case of `CC1(COc2ccc(CC3SC(=O)NC3=O)cc2)CCCCC1` (stereo not drawn) [Ciglitazone], the EC50 (PPARγ; literature value, ref Willson et al. [1996], read-out: Agonistic activity EC50) is given as 3000 nM.

For `CC(C)O[C@@H](Cc1cccc(OC[C@H](F)COc2ccc(Cl)cc2C#N)c1)C(=O)O` [E3030], the EC50 (PPARγ; literature value, ref Kasai et al. [2008], read-out: Agonistic activity EC50) is given as 34 nM.

In the case of `CCCCc1nc(Cl)c(C=O)n1Cc1ccc(-c2ccccc2-c2nn[nH]n2)cc1` [EXP3179], the EC50 (PPARγ; literature value, ref Schupp et al. [2006], read-out: Agonistic activity EC50) is given as 17000 nM.

For `C/C(=C/C(=O)c1ccccc1)N[C@@H](Cc1ccc(OCCc2nc(-c3ccccc3)oc2C)cc1)C(=O)O` [GW409544], the EC50 (PPARγ; [1]) is given as 0.28 nM.

In the case of `CN(CCOc1ccc(CC2SC(=O)NC2=O)cc1)c1ccccn1` (stereo not drawn) [Rosiglitazone], the EC50 (PPARγ; [1]) is given as 18 nM and the EC50 (PPARγ; previous report, ref Xu et al. [2001], read-out: EC50 (converted)) is given as 18 nM.

`O=C(N/N=C/c1ccc(-c2ccc([N+](=O)[O-])cc2)o1)c1ccccc1` [ZINC44179] gave an Agonistic intensity (human PPARγ (hPPARγ)) of 78% and an EC50 (human PPARγ (hPPARγ)) of 350 ± 60 nM.

In the case of `CC1=NN(CN2CCOCC2)C(=O)/C1=N\Nc1ccc(C(=O)O)cc1` [ZINC13408172], the Agonistic intensity (human PPARγ (hPPARγ)) is reported as 116% and the EC50 (human PPARγ (hPPARγ)) is reported as 84 ± 15 nM.
